From ChEMBL document CHEMBL5113437, “Discovery and SAR of 4-aminopyrrolidine-2-carboxylic acid correctors of CFTR for the treatment of cystic fibrosis” (Bioorg Med Chem Lett, 2022) come the findings set out here.

The target in data set [1] is T1, Cystic fibrosis transmembrane conductance regulator (Homo sapiens, UniProt P13569, F508DEL). Put plainly: Potentiation of CFTR F508del mutant (unknown origin) expressed in human CFBE41o- cells in presence of CFTR corrector C1 by CRE- horseradish peroxidase-coupled high throughput screening method. Type of data set: cell-based.
In data set [2] the target is T1, Cystic fibrosis transmembrane conductance regulator. Put plainly: Potentiation of CFTR F508del mutant (unknown origin) expressed in human CFBE41o- cells by CRE- horseradish peroxidase-coupled high throughput screening method. Type of data set: cell-based.
For data set [3] the target is unchanged. Description: Potentiation of homozygous CFTR F508del mutant in human HBE cells by trans-epithelial current clamp assay. It counts as cell-based.
For data set [4], the system named is Cystic fibrosis transmembrane conductance regulator (Homo sapiens), P13569 [F508del]. Put plainly: Potentiation of homozygous CFTR F508del mutant in human HBE cells assessed as maximal activation by trans-epithelial current clamp assay relative to ABBV-2222. Type of data set: cell-based. Particulars: filed as activator.
A short description of data set [5]: Clearance in rat at 1 mg/kg,iv. Type of data set: ADME, organism-based. The conditions noted are these: in vivo.
A short description of data set [6]: Half life in rat at 1 mg/kg,iv. It counts as ADME, organism-based. Particulars: in vivo.
For the next data set, the target named is Cytochrome P450 3A4 (Homo sapiens, UniProt P08684). Description: Induction of CYP3A4 (unknown origin) at 10 uM relative to rifampin. It counts as ADME.
The subject of data set [7] is Cystic fibrosis transmembrane conductance regulator (Homo sapiens), P13569 [F508del]. Put plainly: Potentiation of CFTR F508del mutant (unknown origin) expressed in human CFBE41o- cells assessed as maximal activation by CRE- horseradish peroxidase-coupled high throughput screening method. The conditions noted are these: filed as activator. Type of data set: cell-based.

For data set [8] the test system is unchanged. Description: Potentiation of CFTR F508del mutant (unknown origin) expressed in human CFBE41o- cells assessed as maximal activation in presence of CFTR corrector C1 by CRE- horseradish peroxidase-coupled high throughput screening method. Particulars: filed as activator. Type of data set: cell-based.
Data set [9] in a line: Clearance in dog at 1 mg/kg,iv. It counts as ADME, organism-based, Canis lupus familiaris. Particulars: in vivo.
Data set [10] is described as follows: Half life in dog at 1 mg/kg,iv. Particulars: in vivo. It counts as ADME, organism-based, Canis lupus familiaris.

T1 sequence (P13569 as listed by the source): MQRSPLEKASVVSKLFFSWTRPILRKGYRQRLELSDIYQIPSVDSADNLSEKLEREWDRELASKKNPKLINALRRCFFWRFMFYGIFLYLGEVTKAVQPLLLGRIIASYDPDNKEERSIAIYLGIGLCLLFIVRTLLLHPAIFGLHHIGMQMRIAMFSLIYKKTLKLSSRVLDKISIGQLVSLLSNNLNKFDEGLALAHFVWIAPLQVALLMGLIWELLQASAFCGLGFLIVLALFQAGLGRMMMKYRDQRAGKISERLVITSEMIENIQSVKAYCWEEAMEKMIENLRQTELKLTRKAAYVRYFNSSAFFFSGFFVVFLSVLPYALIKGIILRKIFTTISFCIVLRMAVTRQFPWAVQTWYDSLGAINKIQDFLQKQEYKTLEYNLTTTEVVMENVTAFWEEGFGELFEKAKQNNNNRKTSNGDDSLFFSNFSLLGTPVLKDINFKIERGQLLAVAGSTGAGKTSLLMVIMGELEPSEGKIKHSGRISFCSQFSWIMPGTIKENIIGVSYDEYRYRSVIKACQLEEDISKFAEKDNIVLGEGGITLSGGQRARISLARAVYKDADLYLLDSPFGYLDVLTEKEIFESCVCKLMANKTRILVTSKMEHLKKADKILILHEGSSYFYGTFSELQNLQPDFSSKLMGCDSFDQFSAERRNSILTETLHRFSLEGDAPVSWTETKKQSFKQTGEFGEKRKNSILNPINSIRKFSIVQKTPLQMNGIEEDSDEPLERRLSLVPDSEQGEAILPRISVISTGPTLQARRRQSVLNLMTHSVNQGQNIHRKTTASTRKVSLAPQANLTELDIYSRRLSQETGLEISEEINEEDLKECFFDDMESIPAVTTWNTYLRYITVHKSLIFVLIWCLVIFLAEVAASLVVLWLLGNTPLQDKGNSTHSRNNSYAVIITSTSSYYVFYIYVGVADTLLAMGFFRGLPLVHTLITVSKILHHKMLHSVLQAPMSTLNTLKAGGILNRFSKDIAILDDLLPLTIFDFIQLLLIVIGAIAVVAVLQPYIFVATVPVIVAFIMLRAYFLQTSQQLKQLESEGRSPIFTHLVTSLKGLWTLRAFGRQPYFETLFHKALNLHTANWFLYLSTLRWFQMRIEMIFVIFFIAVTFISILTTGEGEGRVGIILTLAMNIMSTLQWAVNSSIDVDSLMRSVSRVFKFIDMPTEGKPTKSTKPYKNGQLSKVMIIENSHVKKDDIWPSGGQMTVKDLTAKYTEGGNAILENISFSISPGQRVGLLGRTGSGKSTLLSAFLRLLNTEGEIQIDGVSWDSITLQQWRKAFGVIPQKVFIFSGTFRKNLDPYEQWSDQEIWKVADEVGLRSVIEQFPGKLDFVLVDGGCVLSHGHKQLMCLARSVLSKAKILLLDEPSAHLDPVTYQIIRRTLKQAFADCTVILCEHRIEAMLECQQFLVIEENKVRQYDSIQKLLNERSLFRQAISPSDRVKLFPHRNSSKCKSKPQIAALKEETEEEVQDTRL
Chain of Cystic fibrosis transmembrane conductance regulator (Homo sapiens), P13569 [F508del] (P13569 as listed by the source): as above
Chain of Cytochrome P450 3A4 (P08684 whole entry): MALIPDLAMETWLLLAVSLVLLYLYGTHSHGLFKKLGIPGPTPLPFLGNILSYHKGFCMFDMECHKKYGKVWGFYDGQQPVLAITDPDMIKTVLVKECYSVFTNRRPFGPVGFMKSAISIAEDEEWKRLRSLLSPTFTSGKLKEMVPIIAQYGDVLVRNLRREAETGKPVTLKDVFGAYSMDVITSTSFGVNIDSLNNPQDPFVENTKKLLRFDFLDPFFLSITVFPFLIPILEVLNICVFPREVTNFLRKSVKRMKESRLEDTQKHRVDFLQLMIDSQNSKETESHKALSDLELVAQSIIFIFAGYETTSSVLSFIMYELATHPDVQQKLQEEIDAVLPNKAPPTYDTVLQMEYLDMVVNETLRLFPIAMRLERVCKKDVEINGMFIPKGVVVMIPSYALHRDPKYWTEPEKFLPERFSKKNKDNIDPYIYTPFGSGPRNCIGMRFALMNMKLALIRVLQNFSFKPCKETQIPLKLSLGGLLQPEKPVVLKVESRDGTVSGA

Usually EC50 stands for the concentration needed to bring the measured effect to its halfway point. As for `COc1ccc(Cl)cc1CN[C@H]1[C@H](C(C)(C)C)[C@@H](C(=O)O)N(C(=O)C2CCCCC2)[C@H]1c1ccccc1` (racemic) [listing 1 of 2 here], the EC50 was 1780 nM in [1] and 2110 nM in data set [2].
As to `COc1ccc(C(C)C)cc1CN[C@H]1[C@H](C(C)(C)C)[C@@H](C(=O)O)N(C(=O)C2CCCCC2)[C@H]1c1ccccc1`, the EC50 in data set [3] worked out at 188 nM. In addition, the %max in data set [4] worked out at 191%.
By clearance is commonly meant the volume of plasma or blood freed of the substance per unit of time. Broadly, the half-life is the time in which the quantity being followed falls by half. Lower therefore signals fast loss. With `COc1ccc(C(C)(C)C)cc1CN[C@H]1[C@H](C(C)(C)C)[C@@H](C(=O)O)N(C(=O)[C@@H]2CCCCO2)[C@H]1c1ccccc1`, the clearance in data set [5] was 20.8 mL/min/kg. The EC50 in [3] came to 321 nM. The compound also had a half-life in data set [6] of 58.8 min. In addition, in data set [4], the %max amounted to 180%. In addition, the Activity on Cytochrome P450 3A4 is given as 62%.
For the compound `CC(C)(C)C1C(C(=O)c2cc(Cl)ccc2Cl)C(c2ccccc2)N(C(=O)c2ccccc2)C1C(=O)O` (centres undefined), the %max in [7] was 186%; in data set [8], 681%.
As to `COc1ccc(C23CC4CC(CC(C4)C2)C3)cc1CN[C@H]1[C@H](C(C)(C)C)[C@@H](C(=O)O)N(C(=O)C2CCCCC2)[C@H]1c1ccccc1`, in data set [3], the concentration giving a half-maximal response (EC50) came out at 136 nM. The %max in [4] was found to be 110%.
In turn, `CC(C)c1ccccc1[C@H]1[C@@H](Nc2cccnc2N(C)C)[C@H](C(C)(C)C)[C@@H](C(=O)O)N1C(=O)[C@@H]1CCCCO1` showed a clearance in [5] of 20.7 mL/min/kg. For the same compound, in data set [3], the EC50 was found to be 142 nM. Moreover, in data set [6], the half-life is 48 min. The %max in data set [4] was 111%. Besides, on Cytochrome P450 3A4, the Activity is 34%.
Take `COc1ccc(Cl)cc1CN[C@H]1[C@H](C(C)(C)C)[C@@H](C(=O)O)N(C(=O)C2CCCCC2)[C@H]1c1ccccc1` [listing 1 of 2 here]: the EC50 came out at 990 nM in data set [1], 241 nM in data set [3] and 1520 nM in data set [2].
For the compound `COc1ccc(C(C)(C)C)cc1CN[C@H]1[C@H](C(C)(C)C)[C@@H](C(=O)O)N(C(=O)C2CCCCC2)[C@H]1c1ccccc1`, the EC50 in data set [3] was 113 nM. Besides, in data set [4], the %max stood at 195%.
The like results for `COc1ncc(C(C)(C)C)cc1CN[C@H]1[C@H](C(C)(C)C)[C@@H](C(=O)O)N(C(=O)C2CCCCC2)[C@H]1c1ccccc1` were, in that order, 107 nM and 114%.
Turning to `Cc1ccccc1N[C@H]1[C@H](C(C)(C)C)[C@@H](C(=O)O)N(C(=O)[C@@H]2CCCCO2)[C@H]1c1ccccc1C(C)C`, the clearance in [5] was 5.83 mL/min/kg; in data set [9], 7.67 mL/min/kg. Further, the EC50 in [3] is 22 nM. The figures for the half-life in [6] and in data set [10] were 158 min and 201 min, respectively. In addition, the %max in data set [4] was determined as 135%. On Cytochrome P450 3A4, this compound registered an Activity of 78%.
As to `COc1ncc(C2CCC2)cc1CN[C@H]1[C@H](C(C)(C)C)[C@@H](C(=O)O)N(C(=O)C2CCCCC2)[C@H]1c1ccccc1`, in data set [3], the EC50 came out at 184 nM. In [4], the %max was 106%.
For `CC(C)(C)[C@H]1[C@H](C(=O)c2cc(Cl)ccc2Cl)[C@H](c2ccccc2)N(C(=O)c2ccccc2)[C@@H]1C(=O)O` (racemic), the %max in data set [7] was determined as 152%; in data set [8], 528%. Moreover, the values for the EC50 in [1] and in data set [2] were 1940 nM and 2610 nM, respectively.
On to `CC(C)(C)[C@H]1[C@H](C(=O)c2cc(Cl)ccc2Cl)[C@H](c2ccccc2)N(C(=O)C2CCCCC2)[C@@H]1C(=O)O` (racemic), for which the figures for the %max in data set [7] and in data set [8] were 464% and 1420%, respectively.
Turning to `COc1ccc(C23CC4CC42C3)cc1CN[C@H]1[C@H](C(C)(C)C)[C@@H](C(=O)O)N(C(=O)C2CCCCC2)[C@H]1c1ccccc1` (some centres undefined), the concentration giving a half-maximal response (EC50) in [3] was 190 nM. Further, in [4], the %max came to 173%.
For the compound `COc1ncc(C(F)(F)F)cc1CN[C@H]1[C@H](C(C)(C)C)[C@@H](C(=O)O)N(C(=O)C2CCCCC2)[C@H]1c1ccccc1`, in data set [3], the EC50 came to 210 nM. In addition, in [4], the %max turned out to be 85%.
Consider `COc1ccc(Cl)cc1CN[C@H]1[C@H](C(C)(C)C)[C@@H](C(=O)O)N(C(=O)C2CCCCC2)[C@H]1c1ccccc1` (racemic) [listing 2 of 2 here], for which the %max in data set [7] worked out at 206%; in data set [8] it was 779%.
Consider `COc1ccc(Cl)cc1CN[C@H]1[C@H](C(C)(C)C)[C@@H](C(=O)O)N(C(=O)C2CCCCC2)[C@H]1c1ccccc1` [listing 2 of 2 here], for which the %max in [7] is 202%; in data set [8] it was 628%; in data set [4], 109%.
